From article PMC6934184, “Selective DNA-PKcs inhibition extends the therapeutic index of localized radiotherapy and chemotherapy” (The Journal of Clinical Investigation, 2019)

Target: T1, PLK3 (Homo sapiens, UniProt Q9H4B4)
T1 construct: purchased Thermo Fisher Scientific (Life Technologies) SelectScreen
Assay: SelectScreen Z'LYTE
Assay type: biochemical
How it was run: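 SelectScreen broad panel; activity (Z'LYTE, Adapta) plus binding formats. ATP: Km app for CSF1R Z'LYTE; 10 for CAMK1 Adapta. Readout = % per kinase.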

T1 sequence (Q9H4B4 whole entry): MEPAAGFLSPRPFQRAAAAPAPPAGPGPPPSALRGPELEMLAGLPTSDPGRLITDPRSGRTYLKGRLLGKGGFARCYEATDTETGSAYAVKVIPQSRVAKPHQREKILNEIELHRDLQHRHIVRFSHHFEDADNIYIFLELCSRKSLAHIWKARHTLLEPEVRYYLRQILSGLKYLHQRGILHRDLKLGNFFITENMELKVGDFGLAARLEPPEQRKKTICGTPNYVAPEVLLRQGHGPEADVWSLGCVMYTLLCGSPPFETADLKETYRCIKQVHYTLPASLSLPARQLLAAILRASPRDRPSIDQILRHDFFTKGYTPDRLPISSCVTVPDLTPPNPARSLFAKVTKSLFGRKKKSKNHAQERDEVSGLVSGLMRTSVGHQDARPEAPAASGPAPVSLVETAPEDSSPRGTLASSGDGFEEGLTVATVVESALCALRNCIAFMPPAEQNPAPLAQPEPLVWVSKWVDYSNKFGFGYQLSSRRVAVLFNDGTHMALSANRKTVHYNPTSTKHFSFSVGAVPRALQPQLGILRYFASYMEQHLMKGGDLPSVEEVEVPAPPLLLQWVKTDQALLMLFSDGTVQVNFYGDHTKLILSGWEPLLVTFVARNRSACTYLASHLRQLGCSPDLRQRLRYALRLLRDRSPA

## CN(C(=O)CN1CCOCC1)c1ccc2sc3c(-c4cccc5c(=O)cc(N6CC7CCC(C6)O7)oc45)cccc3c2c1 [NU5455]
  inhibition at 1 µM: -18.2%
